The values below come from ChEMBL document CHEMBL1142720, “Fluoro-olefins as peptidomimetic inhibitors of dipeptidyl peptidases” (J Med Chem, 2005).

One assay concerns the target Dipeptidyl peptidase 4 (Homo sapiens, UniProt P27487). The experiment in a line: Inhibitory concentration against human Dipeptidylpeptidase IV.
For a further assay, the target named is Dipeptidyl peptidase 2 (Homo sapiens, UniProt Q9UHL4). The experiment in a line: Inhibitory concentration against human Dipeptidylpeptidase II.

Molecules are shown by their SMILES.

Sequence of Dipeptidyl peptidase 4 (P27487 whole entry): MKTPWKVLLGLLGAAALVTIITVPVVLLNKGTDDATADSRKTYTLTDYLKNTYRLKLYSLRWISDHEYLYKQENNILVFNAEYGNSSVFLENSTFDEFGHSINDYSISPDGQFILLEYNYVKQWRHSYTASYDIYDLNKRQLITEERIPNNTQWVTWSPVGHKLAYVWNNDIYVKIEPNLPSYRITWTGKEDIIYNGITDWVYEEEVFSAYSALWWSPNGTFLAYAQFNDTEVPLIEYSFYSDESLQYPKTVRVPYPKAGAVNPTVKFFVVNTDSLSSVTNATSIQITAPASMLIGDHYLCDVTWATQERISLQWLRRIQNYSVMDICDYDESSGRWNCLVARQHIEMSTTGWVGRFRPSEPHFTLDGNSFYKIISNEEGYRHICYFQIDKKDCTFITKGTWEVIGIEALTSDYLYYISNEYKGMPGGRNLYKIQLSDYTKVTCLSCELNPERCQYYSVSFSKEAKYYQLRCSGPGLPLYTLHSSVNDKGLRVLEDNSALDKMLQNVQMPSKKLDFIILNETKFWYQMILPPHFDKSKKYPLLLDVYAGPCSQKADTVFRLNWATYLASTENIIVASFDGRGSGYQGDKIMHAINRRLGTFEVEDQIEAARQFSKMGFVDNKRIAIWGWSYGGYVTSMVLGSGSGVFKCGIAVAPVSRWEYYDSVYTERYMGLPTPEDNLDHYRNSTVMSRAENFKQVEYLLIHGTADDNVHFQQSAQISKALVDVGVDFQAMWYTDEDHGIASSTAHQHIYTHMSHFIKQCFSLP

Consider `FC(CNC1CCN(Cc2ccccc2)CC1)=C1CCCCC1`, for which the IC50 at Dipeptidyl peptidase 4 is greater than 250 µM.
`FC(CNCc1ccc(F)cc1)=C1CCCC1` yielded an IC50 against Dipeptidyl peptidase 4 greater than 1000 µM.
On to `FC(CNC1CCN(Cc2ccccc2)CC1)=C1CCCC1`, for which the IC50 against Dipeptidyl peptidase 4 is greater than 250 µM.
Compound `S=C(CNCc1ccc2c(c1)OCO2)N1CCCCC1` displayed an IC50 against Dipeptidyl peptidase 4 greater than 1000 µM.
On the same count and under the same terms, the result for `C(CNCc1ccccc1)=C1CCCC1` reads greater than 1000 µM; that for `FC(CNCc1ccccc1)=C1CCCCC1`, greater than 1000 µM; that for `FC(CNC1CCNCC1)=C1CCCCC1`, greater than 1000 µM.
Consider `COc1ccc(CNCC(F)=C2CCCCC2)cc1`, for which, on Dipeptidyl peptidase 4, the IC50 is greater than 250 µM.
Compound `O=C(CNCc1ccc2c(c1)OCO2)N1CCCCC1` gave an IC50 at Dipeptidyl peptidase 4 greater than 1000 µM.
As to `FC(CNC12CC3CC(CC(C3)C1)C2)=C1CCCCC1`, the IC50 at Dipeptidyl peptidase 4 is greater than 250 µM.
The same measure, in the same setting: the result for `N#CC1CCC/C1=C(\F)CNCCc1ccccc1` (centres undefined) reads greater than 1000 µM.
For `O=C(CNCc1ccccc1)N1CCCCC1`, the IC50 was greater than 1000 µM on Dipeptidyl peptidase 4 and 397 µM at Dipeptidyl peptidase 2.
`S=C(CNC1CCCCC1)N1CCCCC1`: on Dipeptidyl peptidase 4, the IC50 is greater than 1000 µM.
`N#CC1CCC/C1=C(\F)CNCc1ccc(F)cc1` (centres undefined) showed an IC50 against Dipeptidyl peptidase 4 greater than 500 µM.
`FC(CNC1CCCCC1)=C1CCCC1` gave an IC50 against Dipeptidyl peptidase 4 greater than 1000 µM.
At Dipeptidyl peptidase 4, `COc1ccc(CNCC(F)=C2CCCC2)cc1` came in with an IC50 greater than 1000 µM.
Turning to `FC(CNCc1ccc(F)cc1)=C1CCCCC1`, at Dipeptidyl peptidase 4, the 50% inhibitory concentration (IC50) was greater than 250 µM.
As to `O=C(CNC1CCCCC1)N1CCCC1`, the IC50 on Dipeptidyl peptidase 4 was determined as 148 µM; on Dipeptidyl peptidase 2, 276 µM.
At Dipeptidyl peptidase 4, `CN1CCC(NCC(F)=C2CCCCC2)CC1` yielded an IC50 greater than 125 µM.
The compound `FC(CNCc1ccc2c(c1)OCO2)=C1CCCCC1` returned an IC50 at Dipeptidyl peptidase 4 greater than 250 µM.
The same measure, in the same setting: the result for `FC(CNc1ccccc1)=C1CCCCC1` reads greater than 250 µM; that for `FC(CNCc1ccccc1)=C1CCCC1`, greater than 1000 µM; that for `O=C(CNCc1ccc2c(c1)OCO2)N1CCCC1`, greater than 1000 µM.
In turn, `FC(CNCCc1ccccc1)=C1CCCCC1` showed an IC50 on Dipeptidyl peptidase 4 greater than 1000 µM.
`O=C(CNCc1ccccc1)N1CCCC1`: the IC50 turned out to be 1000 µM against Dipeptidyl peptidase 4 and 500 µM at Dipeptidyl peptidase 2.
In the case of `N#CC1CCC/C1=C(/F)CNC12CC3CC(CC(C3)C1)C2` (centres undefined), the IC50 on Dipeptidyl peptidase 2 is greater than 100 µM.
For the compound `CN(C)CCCNCC(F)=C1CCCCC1`, at Dipeptidyl peptidase 4, the IC50 was greater than 1000 µM.
Consider `C(CNC1CCCCC1)=C1CCCC1`, for which the concentration for half-maximal inhibition (IC50) against Dipeptidyl peptidase 4 is greater than 1000 µM.
The same measure, in the same setting: the result for `C(CNCc1ccc2c(c1)OCO2)=C1CCCC1` reads greater than 250 µM.
Consider `O=C(CNC1CCCCC1)N1CCCCC1`, for which the IC50 at Dipeptidyl peptidase 4 is greater than 1000 µM; against Dipeptidyl peptidase 2, 177 µM.
Compound `N#CC1CCC/C1=C(/F)CNCCc1ccccc1` (centres undefined) registered an IC50 at Dipeptidyl peptidase 4 greater than 500 µM.
Regarding `FC(CNCc1cccc(C(F)(F)F)c1)=C1CCCCC1`, the IC50 at Dipeptidyl peptidase 4 is greater than 125 µM.
Same read-out and setting: the result for `FC(CNCCc1ccccc1)=C1CCCC1` reads greater than 1000 µM; that for `CN(C)CCCNCC(F)=C1CCCC1`, greater than 1000 µM.
In the case of `FC(CNC1CCCCC1)=C1CCCCC1`, the IC50 was greater than 500 µM on Dipeptidyl peptidase 4 and 500 µM against Dipeptidyl peptidase 2.
For the compound `FC(CNCCc1ccccn1)=C1CCCC1`, the IC50 against Dipeptidyl peptidase 4 is greater than 1000 µM.
Compound `N#CC1CCC/C1=C(/F)CNCc1ccc(F)cc1` (centres undefined) came in with an IC50 against Dipeptidyl peptidase 4 greater than 1000 µM.
On Dipeptidyl peptidase 4, `S=C(CNCc1ccccc1)N1CCCCC1` had an IC50 greater than 1000 µM.
`N#CC1CCC/C1=C(\F)CNC12CC3CC(CC(C3)C1)C2` (centres undefined) showed an IC50 against Dipeptidyl peptidase 2 greater than 100 µM.

For orientation: IC50 means the concentration that inhibits the measured activity by half. A high value points to a need for much substance.
